From patent publication US20120171123A1, “USES AND COMPOSITIONS FOR TREATMENT OF RHEUMATOID ARTHRITIS” (priority 2006, published 2012)
Several values for one entry are separate records, joined by “and”; a condition that tells them apart may be missing. Equal values may be shown once.

Test system: patients with active rheumatoid arthritis
Test: Study A: EULAR response (moderate/good)
Type: in vivo, human
Conditions: for Good EULAR response (%) / Moderate EULAR response (%): LOCF
Source text: In one embodiment, the invention provides a method for determining the efficacy of a TNFα inhibitor, including a human TNFα antibody, for treating RA in a subject, using the EULAR response of a subject or patient population. European League Against Rheumatism (EULAR) Response Criteria uses a Disease Activity Score (DAS) for defining response. To be classified as responders, patients should have a significant change in DAS and also low current disease activity. Response is defined as both: (a) change in disease activity from baseline and (b) the level of disease activity reached during follow-up. Criteria used to define DAS include: Ritchie articular index, swollen joint count (44-joint count), erythrocyte sedimentation rate, and […]. A modified version of the DAS criteria, DAS28, uses a 28-joint count for swollen and tender joints. Response is defined as a combination of a significant change from baseline and the level of disease activity attained. Good response is defined as a significant decrease in DAS (>1.2) and a low level of disease activity (< or =2.4). Non-response is defined as a decrease < or =0.6, or a decrease >0.6 and < or =1.2 with an attained DAS >3.7. Any other scores are regarded as moderate responses. Thus, three categories are defined: good, moderate, and non-responders. For details of EULAR criteria see Van Gestel et al. (1996) 39(1):34-40, incorporated by reference herein.
The study design included a 12 week open label treatment period followed by a continuation period examining safety and efficacy. […] The main inclusion criteria for the study were the following: males and females ≧18 years; rheumatoid arthritis (RA; defined by ACR criteria) for ≧3 months; unsatisfactory response (or intolerance) to at least one prior DMARD; and patients with active RA (DAS28≧3.2). Baseline demographics and disease severity is shown below in Table 1:
Efficacy of adalimumab treatment was determined by examining signs and symptoms of the patients. Various assays were used to determine efficacy, including ACR response, EULAR response, TJC and SJC count, and DAS28.
The objective of this study was to evaluate the impact of prior biologic therapies, in particular TNF-antagonists etanercept (ETA) and infliximab (INF), on key efficacy parameters of adalimumab therapy in patients with long-standing RA in clinical practice. To evaluate the impact of prior biological therapies, patients with moderate to severe RA enrolled at 450 sites in 11 European countries plus Australia (Study A). Patients with moderate to severe RA and an inadequate response to prior DMARD therapies were enrolled in a 12-week open-label study with an optional extension phase. […] Patients with previous biologic treatment must have received the last administration at least 8 weeks before enrollment Routine safety and efficacy data were collected at weeks 2, 6, and 12, and every 8 weeks in the extension phase. Efficacy parameters included ACR20, ACR50, ACR70, EULAR Response, HAQ, tender and swollen joint count (TJC28/SJC28), and DAS28. […] For this interim analysis, efficacy outcomes were evaluated after 12 weeks of therapy per the number and type of prior biologics used: None, any (ETA, INF, anakinra), ETA only, INF only, or ETA and INF but not anakinra.
Patients with long-standing, moderate to severe RA were enrolled in Study A at 450 sites in 12 different countries. The study design for Study A is outlined in FIG. 21. […] Previous treatment with other biologics was allowed up to 8 weeks before enrollment. Patients met the following inclusion criteria: Age ≧18 years; RA (defined by American College of Rheumatology criteria) for ≧3 months; active, moderate to severe RA (Disease Activity Score (DAS28)≧3.2); unsatisfactory response or intolerance to at least one prior DMARD, including biologics. Efficacy assessments were performed at weeks 0 (baseline), 2, 6, and 12. […]

[1] = Week 12, No prior ETA and/or INF (n=5711)
[2] = Week 12, Prior ETA and/or INF (n=899)
[3] = Week 12, concomitant Cq/Hcq + mtx (n=153)
[4] = Week 12, concomitant LEF only (n=557)
[5] = Week 12, concomitant MTX + LEF (n=123)
[6] = Week 12, concomitant MTX only (n=1561)
[7] = Week 12, concomitant QC/HQC (n=85)
[8] = Week 12, concomitant SSZ only (n=89)
[9] = Wk 12, concomitant MTX Im 15 mg (N=76), no other DMARD
[10] = Wk 12, concomitant MTX Iv 15 mg (N=23), no other DMARD
[11] = Wk 12, concomitant MTX Sc 15 mg (N=37), no other DMARD
[12] = Wk 12, concomitant MTX oral 15 mg (N=405), no other DMARD
[13] = Wk 12, concomitant MTX oral ≦7.5 (N=127), no other DMARD
[14] = Wk 12, concomitant MTX oral ≧20 mg (N=216), no other DMARD
[15] = week 12, concomitant hydroxychloroquine exclusively
[16] = week 12, concomitant leflunomide exclusively
[17] = week 12, concomitant mtx exclusively
[18] = week 12, concomitant sulfasalazine exclusively
[19] = week 12, prior biologic: ETA + INF

For “adalimumab: human anti-TNF mAb (HUMIRA, Abbott Laboratories), described in U.S. Pat. No. 6,090,382 as D2E7”, the “Good EULAR response” value (12 weeks, N=2008 analysis) was 34%, the “Moderate EULAR response” value (12 weeks, N=2008 analysis) was 82% and the “Moderate EULAR response” value (12 weeks, no prior response to ETA and INF) was 50%. For the same substance, the “Good EULAR response (%)” value (Week 12) was 32%, the “Moderate EULAR response (%)” value (Week 12) was 81% and the “Good EULAR” value [1] was 35 % of patients. For the same substance, the “Moderate EULAR” value [1] was 84 % of patients, the “Good EULAR” value [2] was 23 % of patients and the “Moderate EULAR” value [2] was 76 % of patients. For the same substance, the “Good EULAR” value [3] was 40 % of patients, the “Moderate EULAR” value [3] was 88 % of patients and the “Good EULAR response” value [4] was 31%. The “Moderate EULAR response” value [4] was 79%, the “Good EULAR response” value [5] was 29% and the “Moderate EULAR response” value [5] was 86%. For the same substance, the “Good EULAR response” value (Week 12, concomitant MTX + SSZ) was 41%, the “Moderate EULAR response” value (Week 12, concomitant MTX + SSZ) was 89% and the “Good EULAR response” value [6] was 39%. For the same substance, the “Moderate EULAR response” value [6] was 84%, the “Good EULAR response” value [7] was 25% and the “Moderate EULAR response” value [7] was 85%. For the same substance, the “Good EULAR response” value [8] was 39%, the “Moderate EULAR response” value [8] was 75% and the “Good EULAR response (%)” value (Week 28) was 37%. For the same substance, the “Moderate EULAR response (%)” value (Week 28) was 81%, the “Good EULAR response (%)” value (Week 36) was 37% and the “Moderate EULAR response (%)” value (Week 36) was 82%. For the same substance, the “Good EULAR response (%)” value (Week 52) was 38%, the “Moderate EULAR response (%)” value (Week 52) was 82% and the “Good EULAR response” value [9] was 38%. For the same substance, the “Moderate EULAR response” value [9] was 80%, the “Good EULAR response” value [10] was 41% and the “Moderate EULAR response” value [10] was 86%. The “Good EULAR response” value [11] was 25%, the “Moderate EULAR response” value [11] was 86% and the “Good EULAR response” value [12] was 39%. The “Moderate EULAR response” value [12] was 86%, the “Good EULAR response” value [13] was 36% and the “Moderate EULAR response” value [13] was 84%. The “Good EULAR response” value [14] was 50%, the “Moderate EULAR response” value [14] was 89% and the “at least a Moderate EULAR response” value (week 2, French patients) was 64%. For the same substance, the “Good EULAR response” value (week 12, 1 prior biologic) was 25%, the “Moderate EULAR response” value (week 12, 1 prior biologic) was 78% and the “Good EULAR response” value (week 12, 2 prior biologics) was 11%. The “Moderate EULAR response” value (week 12, 2 prior biologics) was 76%, the “Good EULAR response” value (week 12, 3 prior biologics) was 8% and the “Moderate EULAR response” value (week 12, 3 prior biologics) was 75%. For the same substance, the “at least a Moderate EULAR response” value (week 12, French patients) was 80%, the “Good EULAR response” value (week 12, all patients) was 34% and the “Moderate EULAR response” value (week 12, all patients) was 83%. For the same substance, the “Good EULAR” value [15] was 25 % of patients, the “Moderate EULAR” value [15] was 75 % of patients and the “Good EULAR” value [16] was 31 % of patients. The “Moderate EULAR” value [16] was 79 % of patients, the “Good EULAR” value [17] was 39 % of patients and the “Moderate EULAR” value [17] was 84 % of patients. The “Good EULAR” value [18] was 31 % of patients, the “Moderate EULAR” value [18] was 79 % of patients and the “Good EULAR response” value (week 12, no prior biologic) was 34%. For the same substance, the “Moderate EULAR response” value (week 12, no prior biologic) was 81%, the “Good EULAR” value (week 12, prior anakinra) was 36 % of patients and the “Moderate EULAR” value (week 12, prior anakinra) was 75 % of patients. For the same substance, the “Good EULAR” value (week 12, prior biologic (any)) was 22 % of patients, the “Moderate EULAR” value (week 12, prior biologic (any)) was 77 % of patients and the “Good EULAR response” value (week 12, prior etanercept only) was 25% and 24%. The “Moderate EULAR response” value (week 12, prior etanercept only) was 76%, the “Good EULAR response” value (week 12, prior infliximab only) was 22% and the “Moderate EULAR response” value (week 12, prior infliximab only) was 80%. For the same substance, the “Good EULAR” value (week 12, prior biologic: Any) was 23 % of patients, the “Moderate EULAR” value (week 12, prior biologic: Any) was 75 % of patients and the “Good EULAR” value (week 12, prior biologic: ETA) was 21 % of patients. The “Moderate EULAR” value (week 12, prior biologic: ETA) was 74 % of patients, the “Good EULAR” value [19] was 12 % of patients and the “Moderate EULAR” value [19] was 61 % of patients. The “Good EULAR” value (week 12, prior biologic: INF) was 25 % of patients, the “Moderate EULAR” value (week 12, prior biologic: INF) was 78 % of patients and the “Good EULAR” value (week 12, prior biologic: None) was 39 % of patients. For the same substance, the “Moderate EULAR” value (week 12, prior biologic: None) was 82 % of patients.
